From patent US9370555B2, “Surfactant protein D for the treatment of disorders associated with lung injury” (priority 1998, dated 2016)
Entries after “also recorded” stand apart in the source; their conditions may differ.

Legend:
[1] = test system: RAW 264.7 murine macrophage cell line; assay: MMP-9 production by RAW 264.7 macrophages (zymography); assay type: cell-based, mouse; conditions: 10 μM, 24 hours
Experimental: RAW 264.7 murine macrophage cell line was obtained from the American Type Culture Collection (Rockville, Md.) and maintained in DMEM containing 10% FBS, 10 mM HEPES, 50 U/ml penicillin and 50 μg/mL streptomycin. 2×10^5 cells in 24-well plates were incubated with or without 10 μM menadione (Sigma, St. Louis, Mo.) for 24 hours. To assess whether ROS directly stimulated MMP production, RAW 264.7 macrophages were incubated with 10 μM of menadione, a ROS generator, for 24 hours.

MMP-2 and 9 = assay: Gelatin zymography of conditioned media from alveolar macrophages of SP-D(−/−) mice; assay type: cell-based, mouse; conditions: for gelatinolytic activity of MMP-2 and 9 in conditioned media: AMs from SP-D(−/−) mice, 20 mM NAC, 200 μM PDTC, 1 μM DPI, 1 mM apocynin, 10 μM SN-50, 24 h
Experimental: Isolation of alveolar macrophages (AMs) from bronchoalveolar lavage (BAL) was performed by instilling ten, 1 ml aliquots of phosphate-buffered saline (PBS). BAL fluid from several animals was pooled to provide sufficient numbers of macrophages for each analysis. The lavage was centrifuged at 1200 rpm at 7 min and pelleted cells were resuspended in serum-free RPMI medium containing 1% of Nutriodoma (Boehringer Mannheim, Indianapolis, Ind.), and counted with a hemocytometer. More than 90% of BAL cells were AM in both WT and SP-D (−/−) mice. For some experiments, alveolar macrophages (AMs) were isolated by differential attachment to tissue culture flasks at 37° C. Non-adherent cells were then removed, and fresh, serum-free medium was added. The adherent AMs were maintained in a humidified atmosphere containing 5% CO2 and 95% air until the end of the experiments. To determine whether increased oxidant production mediated the expression of MMPs by AMs from SP-D (−/−) mice, the cells were treated with N-acetylcysteine (NAC) and pyrrolidine dithiocarbamate (PDTC), both antioxidant reagents as follows: AMs from SP-D (−/−) mice were pooled and placed in culture at a concentration of 5×10^5 cells per well in serum-free RPMI medium. The AMs were treated with 20 mM N-acetylcysteine (NAC), 200 μM pyrolidine dithiocarbamate (PDTC), 1 μM diphenylene iodonium chloride (DPI) (Sigma, St. Louis, Mo.), or 1 mM apocynin (Aldrich, Milwaukee, Wis.). Cells were also incubated with a 10 μM SN-50 (Calbiochem, LaJolla, Calif.), an inhibitor of NF-κB nuclear import. After 6 h incubation, supernatants were removed and the cells were washed and incubated with fresh media including the reagents for 24 h. […] RAW 264.7 murine macrophage cell line was obtained from the American Type Culture Collection (Rockville, Md.) and maintained in DMEM containing 10% FBS, 10 mM HEPES, 50 U/ml penicillin and 50 μg/mL streptomycin. 2×10^5 cells in 24-well plates were incubated with or without 10 μM menadione (Sigma, St. Louis, Mo.) for 24 hours. Gelatinolytic activity in the culture media of untreated and treated cells was analyzed by SDS-PAGE zymography (FIGS. 29A-29D). Gelatin Zymography was performed as follows: MMP activities were measured in macrophage-conditioned media. Proteinases in the conditioned media were concentrated by incubation with gelatin-agarose beads (Amersham Pharmacia, Arlington Heights, Ill.) for 2 h at 4° C. The beads were pelleted and washed, and proteinases eluted by incubation in sample buffer for 45 min at 37° C. The samples then were electrophoresed into 10% Zymogram gelatin gels (NOVEX, San Diego, Calif.). […] Gels were stained with 0.5% (wt/vol) Coomassie blue in 50% methanol and 10% acetic acid for 30 min, then destained. MMPs were detected as clear bands against a blue background.

NF-κB = assay: EMSA of nuclear extracts from AMs of SP-D(−/−) mice, NF-κB oligonucleotide; assay type: cell-based, mouse; conditions: AMs isolated from SP-D(−/−) mice
Experimental: (§1) To assess whether apocyanin affected binding of nuclear extracts, the following protocol was used: Nuclear extracts were obtained using a modified method previously described (Sever Chroneos, et al. Am. J. Physiol. 277:L79). Lavaged cells were lysed with Buffer A (10 mM Hepes, 10 mM KCl, 0.1 mM EDTA, 1.5 mM MgCl2, 0.2% Nonidet P-40 (NP-40), 1 mM DTT, 0.5 mM PMSF), followed by vortexing to shear the cytoplasmic membranes. Nuclei were pelleted by centrifugation at 3000 rpm for 3 min at 4° C. in a microcentrifuge. Nuclear proteins were extracted with high-salt buffer C (20 mM Hepes, 25% glycerol, 1.5 mM MgCl2, 0.1 mM EDTA, 1.5 mM MgCl2, 420 mM NaCl, 1 mM DTT, 0.5 mM PMSF) and stored at −80° C. Total nuclear protein concentrations were determined by bicinchoninic acid (BCA) method.

AP-1 = assay: EMSA of nuclear extracts from AMs of SP-D(−/−) mice, AP-1 oligonucleotide; assay type: cell-based, mouse; conditions: AMs isolated from SP-D(−/−) mice
Experimental: as §1

MMP-2 and 9 mRNA = assay: RT-PCR of MMP-2 and 9 mRNA in cultured AMs from SP-D(−/−) mice; assay type: cell-based, mouse; conditions: 1 mM apocynin
SP-D(−/−) mice = assay: Treatment of SP-D(−/−) mice with purified mouse SP-D: saturated PC pools; assay type: in vivo; conditions: 2.9 μg intratracheally at 24 hour intervals, 3 to 7 doses
[2] = test system: influenza A virus A/Phillipines/82 (H3N2) (Phil/82); assay type: in vivo; conditions: SP-D −/− mice

CC1=CC(=O)c2ccccc2C1=O [menadione]
MMP-9 production [1]: increased

c1ccc2c(c1)[I+]c1ccccc1-2 [DPI, diphenylene iodonium chloride]
gelatinolytic activity of MMP-2 and 9 in conditioned media (MMP-2 and 9): markedly suppressed MMP enzymatic activity; also recorded: markedly decreased MMP activity

CC(=O)N[C@@H](CS)C(=O)O [NAC, N-acetylcysteine]
gelatinolytic activity of MMP-2 and 9 in conditioned media (MMP-2 and 9): reduced gelatinolytic activity; also recorded: inhibited gelatinolytic activities of MMP-2 and 9

COc1cc(C(C)=O)ccc1O [apocynin]
gelatinolytic activity of MMP-2 and 9 in conditioned media (MMP-2 and 9): markedly suppressed MMP enzymatic activity; also recorded: markedly decreased MMP activity | binding of nuclear extracts to NF-κB oligonucleotide (EMSA) (NF-κB): reduced DNA binding activity of NF-κB | binding of nuclear extracts to NF-κB oligonucleotide (EMSA) (NF-κB; listed as Apocynin): reduced binding of nuclear extracts | DNA binding activity to an AP-1 oligonucleotide (EMSA) (AP-1): decreased DNA binding activity | MMP-2 and 9 mRNA (MMP-2 and 9 mRNA): reduced MMP-2 and 9 mRNA

S=C(S)N1CCCC1 [PDTC, pyrrolidine dithiocarbamate]
gelatinolytic activity of MMP-2 and 9 in conditioned media (MMP-2 and 9): reduced gelatinolytic activity; also recorded: inhibited gelatinolytic activities of MMP-2 and 9

B1: purified mouse SP-D: Surfactant protein D purified from BAL fluid of GMCSF and SP-A double null mutant mice on maltosyl-agarose (protein, UniProt P50404 20-374, looked up)
Pulmonary …: AEMKSLSQRSVPNTCTLVMCSPTENGLPGRDGRDGREGPRGEKGDPGLPGPMGLSGLQGPTGPVGPKGENGSAGEPGPKGERGLSGPPGLPGIPGPAGKEGPSGKQGNIGPQGKPGPKGEAGPKGEVGAPGMQGSTGAKGSTGPKGERGAPGVQGAPGNAGAAGPAGPAGPQGAPGSRGPPGLKGDRGVPGDRGIKGESGLPDSAALRQQMEALKGKLQRLEVAFSHYQKAALFPDGRSVGDKIFRTADSEKPFEDAQEMCKQAGGQLASPRSATENAAIQQLITAHNKAAFLSMTDVGTEGKFTYPTGEPLVYSNWAPGEPNNNGGAENCVEIFTNGQWNDKACGEQRLVICEF
Saturated PC levels in alveolar lavage and total lung lavage (lipid accumulation) (SP-D(−/−) mice): partial correction of lipid accumulation; also recorded: decreased both alveolar and saturated PC pools | MMP production by AMs (MMP-2 and 9; mouse SP-D 5 μg/ml in vitro): did not reduce MMP production

B2: recombinant SP-D: Recombinant human SP-D dodecamers secreted by CHO-K1 cells transfected with full-length human cDNA (protein)
chain: AEMKSLSQRSVPNTCTLVMCSPTENGLPGRDGRDGREGPRGEKGDPGLPGPMGLSGLQGPTGPVGPKGENGSAGEPGPKGERGLSGPPGLPGIPGPAGKEGPSGKQGNIGPQGKPGPKGEAGPKGEVGAPGMQGSTGAKGSTGPKGERGAPGVQGAPGNAGAAGPAGPAGPQGAPGSRGPPGLKGDRGVPGDRGIKGESGLPDSAALRQQMEALKGKLQRLEVAFSHYQKAALFPDGRSVGDKIFRTADSEKPFEDAQEMCKQAGGQLASPRSATENAAIQQLITAHNKAAFLSMTDVGTEGKFTYPTGEPLVYSNWAPGEPNNNGGAENCVEIFTNGQWNDKACGEQRLVICEF
IAV (Phil/82) titer in lung ([2]; 5 μg intratracheal co-administration, 3 days after infection, untreated 1.6×10^5±4.0×10^4, mean±SEM): 7.5×10^4±1.4×10^4 ff/gram lung | clearance of IAV from the lung ([2]; co-administration of recombinant SP-D): normalized viral clearance; also recorded: enhanced clearance
